Measurements from the supplement of paper PMC11451515.

Tested on: NOMO1
Assay: cell viability relative to DMSO control; higher = less cytotoxic
Settings: 48 h
How it was run: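 NOMO1 or SEM cells were plated at 500 cells/well and P12-Ichikawa cells at 1000 cells/well in 1536-well plates (5 μl), after each leukemia line had been adapted for at least four passages in each medium. Pin dosing delivered library compounds in DMSO at 11 threefold concentrations, 47 μM to 0.79 nM. CellTiter-Glo One luminescence was read after 48 h at 37°C. Viability is reported as a per-plate percentage of DMSO wells, with cell-free wells as background.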

[1] = HPLM + 10% dialyzed FBS, 0.000781 µM
[2] = HPLM + 10% dialyzed FBS, 0.00234 µM
[3] = HPLM + 10% dialyzed FBS, 0.00702 µM
[4] = HPLM + 10% dialyzed FBS, 0.0211 µM
[5] = HPLM + 10% dialyzed FBS, 0.0632 µM
[6] = HPLM + 10% dialyzed FBS, 0.19 µM
[7] = HPLM + 10% dialyzed FBS, 0.569 µM
[8] = HPLM + 10% dialyzed FBS, 1.71 µM
[9] = HPLM + 10% dialyzed FBS, 5.12 µM
[10] = HPLM + 10% dialyzed FBS, 15.4 µM
[11] = HPLM + 10% dialyzed FBS, 46.1 µM
[12] = RPMI 5 mM glucose + 10% FBS, 0.000781 µM
[13] = RPMI 5 mM glucose + 10% FBS, 0.00234 µM
[14] = RPMI 5 mM glucose + 10% FBS, 0.00702 µM
[15] = RPMI 5 mM glucose + 10% FBS, 0.0211 µM
[16] = RPMI 5 mM glucose + 10% FBS, 0.0632 µM
[17] = RPMI 5 mM glucose + 10% FBS, 0.19 µM
[18] = RPMI 5 mM glucose + 10% FBS, 0.569 µM
[19] = RPMI 5 mM glucose + 10% FBS, 1.71 µM
[20] = RPMI 5 mM glucose + 10% FBS, 5.12 µM
[21] = RPMI 5 mM glucose + 10% FBS, 15.4 µM
[22] = RPMI 5 mM glucose + 10% FBS, 46.1 µM
[23] = RPMI 5 mM glucose + 10% dialyzed FBS, 0.000781 µM
[24] = RPMI 5 mM glucose + 10% dialyzed FBS, 0.00234 µM
[25] = RPMI 5 mM glucose + 10% dialyzed FBS, 0.00702 µM
[26] = RPMI 5 mM glucose + 10% dialyzed FBS, 0.0211 µM
[27] = RPMI 5 mM glucose + 10% dialyzed FBS, 0.0632 µM
[28] = RPMI 5 mM glucose + 10% dialyzed FBS, 0.19 µM
[29] = RPMI 5 mM glucose + 10% dialyzed FBS, 0.569 µM
[30] = RPMI 5 mM glucose + 10% dialyzed FBS, 1.71 µM
[31] = RPMI 5 mM glucose + 10% dialyzed FBS, 5.12 µM
[32] = RPMI 5 mM glucose + 10% dialyzed FBS, 15.4 µM
[33] = RPMI 5 mM glucose + 10% dialyzed FBS, 46.1 µM

Compound COc1ccc(CC2NCCc3cc(OC)c(OC)cc32)cc1OC (configuration not stated) has a cell viability [1] of 91.9%, a cell viability [2] of 87.5% and a cell viability [3] of 82.6%. The cell viability [4] was 103%, the cell viability [5] was 102% and the cell viability [6] was 98.7%. It also gave a cell viability [7] of 91.6%, a cell viability [8] of 87.4% and a cell viability [9] of 101%. The cell viability [10] was 93.7%, the cell viability [11] was 98.4% and the cell viability [12] was 88.1%. The cell viability [13] was 86.2%, the cell viability [14] was 87% and the cell viability [15] was 90.8%. For the same compound, the cell viability [16] was 86.8%, the cell viability [17] was 89.3% and the cell viability [18] was 89.7%. It also gave a cell viability [19] of 94.7%, a cell viability [20] of 86.6% and a cell viability [21] of 89.4%. The cell viability [22] was 97.1%, the cell viability [23] was 79.5% and the cell viability [24] was 84.1%. It also gave a cell viability [25] of 83.9%, a cell viability [26] of 91.2% and a cell viability [27] of 86.3%. It also gave a cell viability [28] of 89.2%, a cell viability [29] of 82.9% and a cell viability [30] of 91%. It also gave a cell viability [31] of 89.5%, a cell viability [32] of 73.3% and a cell viability [33] of 85.4%.

Compound COC1=CC2=NC=CC(=C2C=C1)OC3=CN=C(NC(=O)C/4=C(C)/N(CC(C)(C)O)N(C4=O)C5=CC=CC=C5)C=C3 has a cell viability [1] of 82%, a cell viability [2] of 87.4% and a cell viability [3] of 86.3%. For the same compound, the cell viability [4] was 101%, the cell viability [5] was 103% and the cell viability [6] was 107%. For the same compound, the cell viability [7] was 98.9%, the cell viability [8] was 96.4% and the cell viability [9] was 69.1%. It also gave a cell viability [10] of 88%, a cell viability [11] of 62.1% and a cell viability [12] of 78.8%. It also gave a cell viability [13] of 92%, a cell viability [14] of 88.6% and a cell viability [15] of 95%. The cell viability [16] was 91.7%, the cell viability [17] was 91.7% and the cell viability [18] was 91.2%. For the same compound, the cell viability [19] was 98.7%, the cell viability [20] was 85.6% and the cell viability [21] was 93.4%. For the same compound, the cell viability [22] was 81.8%, the cell viability [23] was 73.7% and the cell viability [24] was 86.8%. For the same compound, the cell viability [25] was 91.6%, the cell viability [26] was 88.2% and the cell viability [27] was 97.7%. It also gave a cell viability [28] of 83.1%, a cell viability [29] of 96.6% and a cell viability [30] of 84.8%. The cell viability [31] was 77.2%, the cell viability [32] was 94.1% and the cell viability [33] was 64%.

Cc1nc(NC(=O)N2CCC[C@H]2C(N)=O)sc1-c1ccnc(C(C)(C)C(F)(F)F)c1 gave a cell viability [1] of 99.5%, a cell viability [2] of 96.2% and a cell viability [3] of 105%. The cell viability [4] was 81.2%, the cell viability [5] was 85.9% and the cell viability [6] was 81.5%. For the same compound, the cell viability [7] was 75.9%, the cell viability [8] was 70.1% and the cell viability [9] was 46.2%. For the same compound, the cell viability [10] was 44.4%, the cell viability [11] was 71.7% and the cell viability [12] was 86.8%. For the same compound, the cell viability [13] was 84.8%, the cell viability [14] was 88% and the cell viability [15] was 82.7%. For the same compound, the cell viability [16] was 87.5%, the cell viability [17] was 80.2% and the cell viability [18] was 79.4%. It also gave a cell viability [19] of 77.8%, a cell viability [20] of 56.3% and a cell viability [21] of 55.3%. The cell viability [22] was 82.5%, the cell viability [23] was 79.6% and the cell viability [24] was 84.8%. It also gave a cell viability [25] of 82.2%, a cell viability [26] of 76.8% and a cell viability [27] of 82.2%. For the same compound, the cell viability [28] was 75.6%, the cell viability [29] was 67.8% and the cell viability [30] was 69.2%. It also gave a cell viability [31] of 48.3%, a cell viability [32] of 48.2% and a cell viability [33] of 87.7%.

CN(C)CCOc1cc(-c2cn[nH]c2)ccc1NC(=O)C1COc2ccccc2O1 (configuration not stated) was tested, and the cell viability [1] was 84.2%, the cell viability [2] was 104% and the cell viability [3] was 118%. It also gave a cell viability [4] of 122%, a cell viability [5] of 118% and a cell viability [6] of 106%. The cell viability [7] was 119%, the cell viability [8] was 107% and the cell viability [9] was 122%. It also gave a cell viability [10] of 93.9%, a cell viability [11] of 67.1% and a cell viability [12] of 105%. For the same compound, the cell viability [13] was 93.2%, the cell viability [14] was 110% and the cell viability [15] was 127%. It also gave a cell viability [16] of 94.7%, a cell viability [17] of 97.5% and a cell viability [18] of 114%. For the same compound, the cell viability [19] was 96.3%, the cell viability [20] was 85.4% and the cell viability [21] was 81.5%. It also gave a cell viability [22] of 64.3%, a cell viability [23] of 98.5% and a cell viability [24] of 100%. For the same compound, the cell viability [25] was 106%, the cell viability [26] was 112% and the cell viability [27] was 114%. It also gave a cell viability [28] of 97.7%, a cell viability [29] of 102% and a cell viability [30] of 96.9%. For the same compound, the cell viability [31] was 91.5%, the cell viability [32] was 71.8% and the cell viability [33] was 77%.
